Consider 14 compounds from patent US9487489B2, “Halogen-substituted pyrazole derivatives as pest-control agents” (BAYER CROPSCIENCE AKTIENGESELLSCHAFT, priority 2013, dated 2016).

The structures appear in SMILES notation.

One may read the logP as the decadic logarithm of the partition coefficient of the neutral form, usually between octanol and water. Read a high logP as a more lipophilic compound.

In data set [1] the test system is larvae of the mustard beetle (Phaedon cochleariae). Nature of the data set: Phaedon cochleariae spray test (PHAECO). The settings on record: Chinese cabbage leaf discs, after 7 days. The format is in vivo. An outline of the steps:
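Kill of mustard beetle larvae is read as % mortality 7 days after spraying. Spray liquid: active compound in acetone plus dimethylformamide, brought up with water holding 1000 ppm alkylaryl polyglycol ether emulsifier and diluted further in emulsifier-water.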

Data set [2] relates to adult houseflies (Musca domestica). Nature of the data set: Musca domestica test (MUSCDO). It counts as in vivo. The settings on record: application rate 100 ppm; after 2 days. How it is done: F. Musca domestica Test (MUSCDO)
(§1) Solvent: dimethyl sulphoxide
(§2) To produce a suitable preparation of active compound, 10 mg of active compound are mixed with 0.5 ml of dimethyl sulphoxide, and the concentrate is diluted with water to the desired concentration.
Vessels containing a sponge treated with sugar solution and the active compound preparation of the desired concentration are populated with 10 adult houseflies (Musca domestica).
After 2 days, the kill in % is determined. 100% means that all of the flies have been killed; 0% means that none of the flies have been killed.

The test system of data set [3] is L1 larvae of the Australian sheep blowfly (Lucilia cuprina). Nature of the data set: Lucilia cuprina test (LUCICU). The format is in vivo. The settings on record: application rate 100 ppm; after 2 days. How it is done: E. Lucilia cuprina Test (LUCICU)
as §1, §2
About 20 L1 larvae of the Australian sheep blowfly (Lucilia cuprina) are transferred into a test vessel containing minced horsemeat and the active compound preparation of the desired concentration.
After 2 days, the kill in % is determined 100% means that all of the larvae have been killed; 0% means that none of the larvae have been killed.

The test system of data set [4] is adult cat fleas (Ctenocephalides felis). Nature of the data set: Ctenocephalides felis oral test (CTECFE). It counts as in vivo. The settings on record: application rate 100 ppm in citrated cattle blood; after 2 days. How it is done: D. Ctenocephalides felis-oral Test (CTECFE)
as §1
To produce a suitable preparation of active compound, 10 mg of active compound are mixed with 0.5 ml of dimethyl sulphoxide. Dilution with citrated cattle blood gives the desired concentration.
About 20 unfed adult cat fleas (Ctenocephalides felis) are placed into a chamber which is closed at the top and bottom with gauze. A metal cylinder whose bottom end is closed with a parafilm is placed onto the chamber. The cylinder contains the blood/active ingredient preparation, which can be imbibed by the fleas through the parafilm membrane.
After 2 days, the kill in % is determined 100% means that all of the fleas have been killed; 0% means that none of the fleas have been killed.

The test system of data set [5] is caterpillars of the armyworm (Spodoptera frugiperda). Nature of the data set: Spodoptera frugiperda spray test (SPODFR). The following applies: maize leaf discs, after 7 days. It counts as in vivo. An outline of the steps: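 Percent kill read at day 7 on caterpillar-infested maize leaf discs. Discs were first sprayed with aqueous emulsifier-containing (1000 ppm) preparations made from acetone/dimethylformamide solutions, and dried. Scale: 0% none dead, 100% all dead.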

Data set [6] has as its system engorged adult female cattle ticks (Boophilus microplus). Nature of the data set: Boophilus microplus injection test (BOOPMI Inj). The settings on record: application rate 20 μg/animal; injection into abdomen; assessed after 7 days. The format is in vivo. As for the experimental part: C. Boophilus microplus-injection Test (BOOPMI Inj)
as §1
To produce a suitable preparation of active compound, 10 mg of active compound are mixed with 0.5 ml of solvent, and the concentrate is diluted with solvent to the desired concentration.
1 μl of the active compound solution is injected into the abdomen of 5 engorged adult female cattle ticks (Boophilus microplus). The animals are transferred into dishes and kept in a climate-controlled room.
The activity is assessed after 7 days by laying of fertile eggs. Eggs whose fertility is not visible from the outside are stored in a climate-controlled cabinet until the larvae hatch after about 42 days. An efficacy of 100% means that none of the ticks has laid any fertile eggs; 0% means that all eggs are fertile.

The test system of data set [7] is adult dog ticks (Rhipicephalus sanguineus). Nature of the data set: Rhipicephalus sanguineus in vitro contact test with adult brown dog ticks (T2). The following applies: after 48 h. How it is done:
T2. Rhipicephalus sanguineus-in vitro Contact Tests with Adult Brown Dog Ticks
For the coating of the test tubes, initially 9 mg of active compound are dissolved in 1 ml of acetone p.a. and then diluted with acetone p.a. to the desired concentration. By turning and rocking on an orbital shaker (2 h of rocking rotation at 30 rpm), 250 μl of the solution are distributed homogeneously on the internal walls and the floor of a 25 ml test tube. At 900 ppm active compound solution and 44.7 cm^2 internal surface, an area dose of 5 μg/cm^2 is achieved for homogeneous distribution.
After evaporation of the solvent, the tubes are populated with 5-10 adult dog ticks (Rhipicephalus sanguineus), sealed with a perforated plastic lid and incubated in a horizontal position in the dark at room temperature and ambient humidity. After 48 h, the efficacy is determined. To this end, the ticks are knocked to the floor of the tube and incubated on a hotplate at 45-50° C. for at most 5 min Ticks which remain motionless on the floor or move in an uncoordinated manner such that they are not able to deliberately avoid the heat by climbing upwards are considered to be dead or moribund.
An efficacy of 100% means that all ticks were dead or moribund. 0% efficacy means that none of the ticks had been damaged.

A short description of data set [8]: logP determination by HPLC on a reversed-phase column (C18), EEC Directive 79/831 Annex V.A8. The format is physicochemical. The essentials: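 Per EEC 79/831 Annex V.A8, values derive from HPLC retention at 2.0 ml/min and 55° C on a 50*4.6 C18 column. The 10→95% acetonitrile gradient (0.1%/0.09% formic acid) lasted 4.25 min plus a 1.25 min hold; mass detection was by MSD.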

Data set [9] relates to greenhouse red spider mite (Tetranychus urticae). Nature of the data set: Tetranychus urticae spray test, OP-resistant (TETRUR). The format is in vivo. The following applies: application rate 100 g/ha; bean leaf discs; after 6 days. An outline of the steps:
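Percent kill, scored 6 days post-spray (0% = none dead, 100% = all dead), on Phaseolus vulgaris leaf discs infested with every life stage of the OP-resistant spider mite. Compound dissolved in acetone plus DMF, diluted to test concentration with emulsifier-containing water (1000 ppm).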

Setting [10] is: HPLC on reversed-phase column (C18), acetonitrile/water with formic acid, EEC Directive 79/831 Annex V.A8.

On to `Cc1ccc(C(=O)NC2CC2)cc1-c1cnn(-c2c(C(F)(F)F)c(C(F)(F)C(F)(F)F)nn2C)c1` [Ic-57], for which the efficacy in % in data set [1] (application rate 100 g/ha) was determined as 83%. Moreover, the “efficacy (kill in %)” value in data set [2], in data set [3] and in data set [4] was 100% in each case.

For `COc1cc(C(=O)NC2CC2)cc(-c2cnn(-c3c(C(F)(F)F)c(C(F)(F)C(F)(F)F)nn3C)c2)c1` [Ic-62], the efficacy in % in data set [1] (application rate 500 g/ha) and in [5] (application rate 500 g/ha) was 100% throughout. The “efficacy (kill in %)” value is reported as 100% in [2], 100% in data set [3] and 95% in data set [4]. In addition, the “efficacy (laying of fertile eggs)” value in [6] turned out to be 100%.

Turning to `Cc1cc(C(=O)NC2CC2)cc(-c2cnn(-c3c(C(F)(F)F)c(C(F)(F)C(F)(F)F)nn3C)c2)c1` [Ic-54], the efficacy in % in data set [1] (application rate 500 g/ha) is 100%. Further, the “efficacy (dead or moribund ticks)” value in data set [7] (application rate 1 μg/cm^2) and in [7] (application rate 5 μg/cm^2) was 100% in each case. Besides, the “efficacy (laying of fertile eggs)” value in data set [6] was 100%. The “efficacy (kill in %)” value in [3] and in data set [4] was 100% throughout.

For the compound `Cn1nc(C(F)(F)C(F)(F)F)c(C(F)(F)F)c1-n1ccc(-c2ccc(Cl)c(C(=O)NC3(C#N)CC3)c2)n1` [Id-1], the efficacy in % in [1] (application rate 100 g/ha) and in data set [5] (application rate 100 g/ha) was 100% each time. In addition, the “efficacy (kill in %)” value in [2], in data set [3] and in data set [4] was 100% throughout. For the same compound, in data set [6], the “efficacy (laying of fertile eggs)” value amounted to 100%. This compound also registered a logP in data set [8] (HPLC, reversed-phase C18, acetonitrile (0.1% formic acid)/water (0.09% formic acid) gradient) of 3.87.

With `Cn1nc(C(F)(F)C(F)(F)F)c(C(F)(F)F)c1-n1cc(-c2cc(F)cc(C(=O)NC3(C#N)CC3)c2)cn1` [Ic-38], the efficacy in % in data set [1] (application rate 500 g/ha) and in data set [5] (application rate 500 g/ha) was 100% throughout. The “efficacy (kill in %)” value in data set [2], in data set [3] and in data set [4] was 100% in each case. In addition, the “efficacy (laying of fertile eggs)” value in [6] is on record as 100%.

Turning to `Cn1nc(C(F)(F)C(F)(F)F)c(C(F)(F)F)c1-n1cc(-c2cccc(C(=O)NC3CC3)c2F)cn1` [Ic-33], the efficacy in % in [1] (application rate 500 g/ha) came out at 100%; in [5] (application rate 500 g/ha), 83%. Besides, the “efficacy (kill in %)” value in data set [2], in data set [3] and in data set [4] was 100% in each case. Besides, the “efficacy (laying of fertile eggs)” value in [6] is 100%.

Regarding `Cn1nc(C(F)(F)C(F)(F)F)c(C(F)(F)F)c1-n1cc(-c2ccc(Cl)c(C(=O)Nc3ccncc3)c2)cn1` [Ic-22], the efficacy in % in data set [1] (application rate 100 g/ha), in data set [5] (application rate 100 g/ha) and in [9] was 100% in each case. Besides, the “efficacy (laying of fertile eggs)” value in [6] was 100%. In addition, the logP in [8] (setting [10]) is reported as 2.38. Further, the “efficacy (kill in %)” value in data set [3] and in data set [4] was 100% in each case.

Consider `Cn1nc(C(F)(F)C(F)(F)F)c(C(F)(F)F)c1-n1cc(-c2cc(C(=O)NC3(C#N)CC3)cc(C(F)(F)F)c2)cn1` [Ic-60], for which the efficacy in % in [1] (application rate 500 g/ha) and in data set [5] (application rate 500 g/ha) was 100% in each case. Further, the “efficacy (kill in %)” value in data set [2], in data set [3] and in data set [4] was 100% each time. Besides, in data set [6], the “efficacy (laying of fertile eggs)” value is reported as 100%.

Turning to `N#CC1(NC(=O)c2cc(-c3cnn(-c4c(C(F)(F)F)c(C(F)(F)C(F)(F)F)nn4-c4ccccc4)c3)ccc2Cl)CC1` [Ic-7], the efficacy in % in data set [1] (application rate 100 g/ha) and in [5] (application rate 100 g/ha) was 100% in each case. In addition, the “efficacy (kill in %)” value in data set [2], in [3] and in data set [4] was 100% throughout. In [6], the “efficacy (laying of fertile eggs)” value amounted to 100%. This compound also displayed a logP in data set [8] (setting [10]) of 4.43.

In the case of `Cn1nc(C(F)(F)C(F)(F)F)c(C(F)(F)F)c1-n1cc(-c2cc(C(=O)NC3(C#N)CC3)ccc2Cl)cn1` [Ic-45], the efficacy in % in [1] (application rate 500 g/ha) and in [5] (application rate 500 g/ha) was 100% each time. The “efficacy (kill in %)” value in data set [2], in data set [3] and in [4] was 100% in each case.

Regarding `O=C(NC1CC1)c1cc(-c2cnn(-c3c(C(F)(F)F)c(C(F)(F)C(F)(F)F)nn3-c3ccccc3)c2)ccc1Cl` [Ic-6], the efficacy in % in [1] (application rate 100 g/ha) and in [5] (application rate 100 g/ha) was 100% in each case. Moreover, the figures for the “efficacy (kill in %)” value in data set [2], in data set [3] and in [4] were 90%, 100% and 100%, respectively. In addition, the “efficacy (laying of fertile eggs)” value in [6] worked out at 100%. The compound also displayed a logP in data set [8] (setting [10]) of 4.54.

In turn, `Cc1ccc(C(=O)NC2(C#N)CC2)cc1-c1cnn(-c2c(C(F)(F)F)c(C(F)(F)C(F)(F)F)nn2C)c1` [Ic-58] registered an efficacy in % in [1] (application rate 500 g/ha) of 100%. For the same compound, the “efficacy (kill in %)” value in [2] is recorded as 80%; in [3], 100%; in [4], 100%. Moreover, the “efficacy (laying of fertile eggs)” value in [6] is 100%.

As for `Cn1nc(C(F)(F)C(F)(F)F)c(C(F)(F)F)c1-n1cc(-c2ccc(Cl)c(C(=O)NCc3cccs3)c2)cn1` [Ic-10], the efficacy in % in [1] (application rate 100 g/ha), in data set [5] (application rate 100 g/ha) and in data set [9] was 100% throughout. Also, the “efficacy (laying of fertile eggs)” value in data set [6] is recorded as 100%. In [8] (setting [10]), this compound came in with a logP of 4.40. Moreover, the results for the “efficacy (kill in %)” value in data set [3] and in data set [4] were 100% and 98%, respectively.

`Cn1nc(C(F)(F)C(F)(F)F)c(C(F)(F)F)c1-n1cc(-c2cccc(C(=O)NCc3cccs3)c2)cn1` [Ic-20]: the efficacy in % in data set [1] (application rate 100 g/ha), in data set [5] (application rate 100 g/ha) and in [9] was 100% in each case. Further, in data set [6], the “efficacy (laying of fertile eggs)” value was found to be 100%. In data set [8] (setting [10]), this compound came in with a logP of 4.20. Moreover, the “efficacy (kill in %)” value in [3] and in data set [4] was 100% throughout.
